Source: PMC8661032, “Broad-Spectrum Antibacterial Peptide Kills Extracellular and Intracellular Bacteria Without Affecting Epithelialization” (Frontiers in Microbiology, 2021)
Values after ≈ are worked out from the molar mass of the structure shown. Where two headings read alike, the source gives them in different places. Blank lines part the entries; values can stand above or below the compound they belong to. Residues, ends and D or L forms follow the SMILES beside them.

Key:
[1] = test system: E. faecalis; assay: microbe, parasite or virus in culture; conditions: for MIC: Enterococcus faecalis
Experimental: (§1) Briefly, bacterial colonies from blood agar plates were suspended and grown in Cation-Adjusted Mueller-Hinton Broth (CAMHB, […] Ca^2+, […] Mg^2+). The bacterial suspension was adjusted to 0.5 McFarland standard (∼1 × 10^8 colony-forming units (CFU)/ml) and serial diluted 1:200 in CAMHB (∼5 × 10^5 CFU/mL). […] The suspension was plated out on blood agar plates to confirm the CFU/ml. Both the microtiter plates and the blood agar plates were incubated at 37°C for 24 h.

[2] = test system: E. coli; assay: microbe, parasite or virus in culture; conditions: for MIC: Escherichia coli
Experimental: as §1

[3] = test system: E. faecium; assay: microbe, parasite or virus in culture; conditions: for MIC: Enterococcus faecium
Experimental: as §1

[4] = test system: E. coli K-12 MG1655; assay: Resistance development assay (serial passage), E. coli; type: cell-based, Escherichia coli; conditions: serial passage at sub-MIC in CAMHB, 32 days
From the text: (§2) Bacteria (E. coli K-12 MG1655 and S. aureus ATCC 29213 and SO-SAU19-1) were serial passaged in CAMHB as described by [Silverman et al. (2001)] with some small modifications.

[5] = test system: A. baumannii; assay: microbe, parasite or virus in culture; conditions: for MIC: Acinetobacter baumannii
Experimental: as §1

[6] = test system: E. cloacae; assay: microbe, parasite or virus in culture; conditions: Enterobacter cloacae, 24 h
Experimental: as §1

[7] = test system: K. pneumoniae; assay: microbe, parasite or virus in culture; conditions: for MIC: Klebsiella pneumoniae
Experimental: as §1

[8] = test system: P. aeruginosa; assay: microbe, parasite or virus in culture; conditions: for MIC: Pseudomonas aeruginosa
Experimental: as §1

[9] = test system: S. aureus; assay: microbe, parasite or virus in culture; conditions: Staphylococcus aureus
Experimental: as §1

[10] = test system: S. aureus ATCC 29213 and SO-SAU19-1; type: cell-based, Staphylococcus aureus
From the text: as §2

[11] = test system: S. epidermidis MRSE (SO-SEP9-1); conditions: SO-SEP9-1, 24 h
Experimental: as §1

[12] = test system: E. coli; assay: Growth inhibition assay (OD600 over 24 h); type: cell-based, Escherichia coli; conditions: 60 µg/mL, LB medium, over 24 hours, Supplementary Figure S1
Experimental: An overnight culture of Escherichia coli was diluted 1:100 in Luria-Bertani (LB) medium and allowed to grow until an optical density (OD) at 600 nm (OD600) of 0.06–0.1. APIM-peptides were prepared by serial dilution in Milli-Q H2O and kept at 4°C. Fresh LB medium (60 μl) was added to a flat-bottom microtiter plate. The bacterial suspension was diluted 1:100 in LB, and 75 μl of this suspension was added to the wells. Finally, 15 μl of APIM-peptide solution (to final concentrations 60, 120, and 240 μg/ml) or distilled water (positive control) was added to the wells, reaching a total volume of 150 μl per well. Data are presented only for the dose that separated the effect of the different peptides, i.e., 60 μg/ml. A blank sterile medium was used as negative control. The plates were incubated with shaking at 510 rpm at 37°C inside a plate reader (TECAN, Spark®), and OD was read every hour over a period of 24 h.
The MIC for E. coli in LB medium is higher than that in CAMHB; thus, concentrations higher than the MIC given in Table 2 are used in the growth inhibition and mutagenesis assays. […]
E. coli. Growth of E. coli in LB medium over 24 hours (Optical Density (OD) 600 nm) after addition
of APIM-peptide variants 1-5 (60 µg/mL) at time t=0 (see Table 2). Negative (-) control is no
bacteria added, positive (+) control is untreated bacteria.
highest inhibition of growth.
control (black filled line).

[13] = test system: HEK293 cells
Experimental: HEK293 cells (6,000 cells/well) were seeded in 96-well microtiter plates. After 4 h, APIM-peptides (12–48 μg/ml) were added, and the cells were incubated without change of media for up to 4 days. Viability was measured using the 3-(4,5-dimethylthiazol-2-yl)-2,5-diphenyltetrazolium bromide (MTT) assay as described ([Gilljam et al., 2009]).
(1 picture or pasted object on this page, not shown here)

[14] = test system: E. coli; assay: Rifampicin (RifR) mutagenesis assay after UV-C; type: cell-based, Escherichia coli; conditions: 20 μg/ml peptide, UV-C 20 mJ/cm^2, RifR assay, relative to untreated control
Experimental: The rifampicin (Rif^R) mutagenesis assay was performed as described ([Nedal et al., 2020]). Briefly, an overnight culture of E. coli was diluted 1:1,000 and grown until an OD600 of 0.01. APIM-peptides (20 μg/ml) were added to LB media with glass beads (for uniform distribution of APIM-peptides) and incubated for 30 min at 37°C. The pellets were next collected, resuspended in 500 μl PBS, and exposed to UV-C (20 mJ/cm^2) in a six-well plate at 4°C. The unexposed bacteria (-UV) were otherwise handled exactly like the UV-exposed bacteria. Next, the cells were resuspended in LB media and incubated in a rotary shaker at 37°C at 250 rpm for 2 h before being harvested, diluted, and plated on LB with soft agar with and without rifampicin (100 μg/ml). Mutation frequency, Rif^R/10^8, is obtained as follows: (number of colonies on the rifampicin plate (Rif^R)/(number of colonies on LB plates without antibiotics), per milliliter of bacterial suspension. […]
mutagenesis in E. coli more efficiently than the other peptide variants.
Increase in mutation frequencies after treatment with UV-C (20 mJ/cm2) relative to spontaneous mutations frequencies using the RifR assay were determined. This increase is set to 100% for untreated control, and % reduction after addition of peptides 1-5 (20 μg/mL) are shown. Mean ± SD from three independent experiments. * p<0.05, ** p<0.005

[15] = SO-PAE19-1 (multidrug resistant)

Combination effect with 0.5× MIC betatide ([1]; ATCC 29212): None
MIC ([1]; 24 h): 8 µg/mL (≈ 23.7 µM)
MIC ([1]; ATCC29212, 24 h): 2 µg/mL (≈ 5.93 µM)
Combination effect with 0.5× MIC betatide ([1]; SO-EFA19-1 (optrA+)): None
SMILES: CC(=O)NC[C@H]1CN(c2ccc(N3CCOCC3)c(F)c2)C(=O)O1 [Linezolid, linezolid]

SMILES: CC1(C)S[C@@H]2[C@H](NC(=O)[C@H](N)c3ccccc3)C(=O)N2[C@H]1C(=O)O [Ampicillin, ampicillin]
MIC ([2]; MG1655, read-out: MIC in E. coli): 16 µg/mL (≈ 45.8 µM)
Combination effect with 0.5× MIC betatide ([3]; CCUG 59167 (vanA+), reduced MIC of antibiotic when combined with 0.5× MIC betatide): None
MIC ([3]; 24 h): 2050 µg/mL (≈ 5860 µM)
MIC ([3]; CCUG59167, 24 h): 1 µg/mL (≈ 2.86 µM)
Combination effect with 0.5× MIC betatide ([3]; SO-EFU19-1 (vanB+)): None
increase in MIC relative to day 1 [4]: ≤ 64 ×

SMILES: CNC(C)C1CCC(N)C(OC2C(N)CC(N)C(OC3OCC(C)(O)C(NC)C3O)C2O)O1 (centres unmarked) [Gentamicin, gentamicin]
Combination effect with 0.5× MIC betatide ([5]; ATCC 19606): None
MIC ([5]; 24 h): > 1000 µg/mL
MIC ([5]; ATCC19606, 24 h): 8 µg/mL (≈ 16.8 µM)
MIC [6]: > 1000 µg/mL
MIC ([2]; 24 h): > 500 µg/mL
MIC ([2]; MG1655, 24 h): 0.5 µg/mL (≈ 1.05 µM)
Combination effect with 0.5× MIC betatide ([2]; MG1655): None
Combination effect with 0.5× MIC betatide ([7]; ATCC 13883): Additive 4×
MIC ([7]; 24 h): 64 µg/mL (≈ 134 µM)
MIC ([7]; ATCC13883, 24 h): 0.5 µg/mL (≈ 1.05 µM)
Combination effect with 0.5× MIC betatide ([7]; SO-KPN19-1 (ESBL-CARBA-D)): Additive 4×
Combination effect with 0.5× MIC betatide ([8]; ATCC 27853): None
MIC ([8]; 24 h): 16 µg/mL (≈ 33.5 µM)
MIC ([8]; ATCC27853, 24 h): 2 µg/mL (≈ 4.19 µM)
Combination effect with 0.5× MIC betatide [8, 15]: None
MIC ([9]; ATCC29213, read-out: MIC in S. aureus ATCC 29213, ATCC 29213, values given in method text): 1 µg/mL (≈ 2.09 µM)
MIC ([9]; ATCC29213, read-out: MIC in S. aureus, starting MIC of resistance development assay, CAMHB, strain not differentiated (ATCC 29213 and SO-SAU19-1)): 1 µg/mL
increase in MIC relative to day 1 ([10]; S. aureus ATCC 29213, serial passage, first experiment (parallel 1)): ≤ 256 ×
increase in MIC relative to day 1 ([10]; S. aureus SO-SAU19-1 (MRSA), 20 passages): 8 ×

MIC [6]: > 1020 µg/mL
Combination effect with 0.5× MIC betatide ([7]; ATCC 13883): Additive 2×
MIC ([7]; 24 h): 2050 µg/mL (≈ 4500 µM)
MIC ([7]; ATCC13883, 24 h): 0.13 µg/mL (≈ 0.285 µM)
Combination effect with 0.5× MIC betatide ([7]; SO-KPN19-1 (ESBL-CARBA-D)): None
SMILES: CO/N=C(\C(=O)N[C@@H]1C(=O)N2C(C(=O)O)=C(COC(C)=O)CS[C@H]12)c1csc(N)n1 [Cefotaxime, cefotaxime]

SMILES: CC(C)(O/N=C(\C(=O)N[C@@H]1C(=O)N2C(C(=O)[O-])=C(C[n+]3ccccc3)CS[C@H]12)c1csc(N)n1)C(=O)O [Ceftazidime, ceftazidime]
MIC [6]: > 1000 µg/mL
Combination effect with 0.5× MIC betatide ([8]; ATCC 27853): None
MIC ([8]; 24 h): 128 µg/mL (≈ 234 µM)
MIC ([8]; ATCC27853, 24 h): 2 µg/mL (≈ 3.66 µM)
Combination effect with 0.5× MIC betatide [8, 15]: None

SMILES: CC[C@H](C)[C@H](NC(=O)[C@H](CCCCN)NC(=O)[C@H](CCCNC(=N)N)NC(=O)[C@H](CCCCN)NC(=O)[C@H](CCCCN)NC(=O)[C@H](CCCCN)NC(=O)[C@H](Cc1c[nH]c2ccccc12)NC(=O)[C@H](CCCCN)NC(=O)[C@@H](NC(=O)[C@H](CC(C)C)NC(=O)[C@H](Cc1c[nH]c2ccccc12)NC(=O)[C@H](CCCNC(=N)N)NC(=O)[C@H](CC(=O)O)NC(=O)[C@H](CCSC)NC(C)=O)C(C)C)C(=O)N[C@@H](CCCNC(=N)N)C(=O)N[C@@H](CCCNC(=N)N)C(=O)N[C@@H](CCCNC(=N)N)C(=O)N[C@@H](CCCNC(=N)N)C(=O)N[C@@H](CCCNC(=N)N)C(=O)N[C@@H](CCCNC(=N)N)C(=O)N[C@@H](CCCNC(=N)N)C(=O)N[C@@H](CCCNC(=N)N)C(=O)N[C@@H](CCCNC(=N)N)C(=O)N[C@@H](CCCNC(=N)N)C(=O)N[C@@H](CCCNC(=N)N)C(N)=O [Peptide 1] (Ac-MDRWLVKWKKKRKIRRRRRRRRRRR-NH2)
MIC S. epidermidis MRSE [11]: 32 µg/mL (≈ 8.71 µM)
inhibition of growth of E. coli (OD 600 nm) [12]: least efficient
Reduction of viability HEK293 (24 μg/ml) [13]: +
Reduction of mutation frequency E. coli (20 μg/ml) [14]: +
MIC E. coli ([2]; K-12 MG1655, CLSI broth microdilution, CAMHB, 37°C, 24 h, visible growth, net peptide concentration): 32 µg/mL (≈ 8.71 µM)
